The record followed here is patent US11555055B2, “Peptide inhibitors of insulin-degrading enzyme” (The Regents of the University of California, priority 2017, dated 2023).

Like-named read-outs stand apart in the source and are kept apart here. Where a SMILES comes first, the peptide text is derived from it. Bridges are numbered along the chain shown (N, C = ends).

The test has as its target T1, IDE (Homo sapiens, UniProt P14735).
T1 construct: made in house; host or cells: bacteria
T1 sequence (P14735 1-1019): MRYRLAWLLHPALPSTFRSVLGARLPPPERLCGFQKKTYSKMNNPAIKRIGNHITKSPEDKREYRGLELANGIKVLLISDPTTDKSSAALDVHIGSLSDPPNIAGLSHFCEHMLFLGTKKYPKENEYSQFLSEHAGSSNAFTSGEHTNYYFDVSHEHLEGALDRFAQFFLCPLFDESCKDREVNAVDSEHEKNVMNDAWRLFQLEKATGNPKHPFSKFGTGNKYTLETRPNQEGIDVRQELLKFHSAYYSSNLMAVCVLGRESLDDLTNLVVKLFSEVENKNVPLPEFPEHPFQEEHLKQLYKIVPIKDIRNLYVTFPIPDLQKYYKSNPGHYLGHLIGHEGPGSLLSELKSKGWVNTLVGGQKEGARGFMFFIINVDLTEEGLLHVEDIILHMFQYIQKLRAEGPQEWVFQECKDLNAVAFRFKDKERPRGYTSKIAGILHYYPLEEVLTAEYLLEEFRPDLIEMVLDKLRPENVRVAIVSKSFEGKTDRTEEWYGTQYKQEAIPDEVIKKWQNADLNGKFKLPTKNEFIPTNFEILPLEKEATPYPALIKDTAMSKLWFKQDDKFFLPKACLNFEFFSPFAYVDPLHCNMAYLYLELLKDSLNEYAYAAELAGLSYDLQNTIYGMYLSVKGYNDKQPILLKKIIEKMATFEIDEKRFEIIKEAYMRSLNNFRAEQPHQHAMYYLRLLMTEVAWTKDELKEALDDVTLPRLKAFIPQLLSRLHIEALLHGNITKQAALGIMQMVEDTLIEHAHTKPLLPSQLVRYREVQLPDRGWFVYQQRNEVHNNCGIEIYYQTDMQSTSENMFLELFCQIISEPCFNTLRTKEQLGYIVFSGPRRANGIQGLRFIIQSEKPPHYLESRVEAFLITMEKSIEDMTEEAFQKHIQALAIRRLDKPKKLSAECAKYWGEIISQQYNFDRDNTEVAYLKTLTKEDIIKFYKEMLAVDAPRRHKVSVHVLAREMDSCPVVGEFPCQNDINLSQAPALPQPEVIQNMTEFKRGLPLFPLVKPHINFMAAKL
Kind of test: IDE protease activity assay, insulin degradation quantified by ELISA. Format: biochemical. How it is done: To assess the extent to which these peptide sequences inhibit IDE, we quantified their potency in protease activity assays using recombinant human IDE and two different substrates: FRET1, a fluorogenic peptide (45), and recombinant human insulin.
Degradation Assays—IDE activity was quantified by monitoring the degradation of (7-methoxycoumarin-4-yl)acetic acid-[…](2,4-dinitrophenyl) (FRET1, 5 μM) (49,55), fluoresceinated and biotinylated amyloid β-protein (FAβB; 500 nM) or recombinant human insulin (50 nM) in PBS supplemented with 0.05% BSA. FRET1 degradation was measured by changes in fluorescence (λex=340 nm, λem=420 nm); FAβB degradation was monitored by fluorescence polarization (λex=488 nm, λem=525 nm), as described (56); and insulin degradation was quantified by ELISA. In vitro activity assays incorporated recombinant human IDE (1 nM) purified from bacteria (35). For quantitation of insulin degradation in primary murine skin fibroblasts, cells (1×10^5/well) were plated in 96-well plates and maintained in DMEM supplemented with 10% fetal bovine serum (FBS), 2 mM glutamine, penicillin and streptomycin. After addition of insulin (10 nM or 100 nM), samples of conditioned medium were removed daily and quickly frozen, then insulin levels were quantified in parallel by ELISA according to manufacturer's recommendations (Crystal Chem, Downers Grove, Ill., USA). Assessment of the activity of P12-3A against a variety of matrix-metalloproteases was conducted using the Matrix Metalloproteinase (MMP) Inhibitor Profiling Kit, Fluorometric RED (Enzo Life Sciences, Inc., Farmingdale, N.Y., USA) according to manufacturer's recommendations using the broad-spectrum MMP inhibitor, NNGH, as a positive control.

One may read the Ki as the dissociation constant of the complex between target and ligand, obtained from inhibition or displacement. For the molecule `CC(C)C[C@H](NC(=O)[C@H](CO)NC(=O)[C@@H](N)CCC(N)=O)C(=O)N1CCC[C@H]1C(=O)N[C@@H](Cc1c[nH]c2ccccc12)C(=O)N[C@H]1CSSC[C@@H](C(=O)N[C@H](C(=O)N[C@H](C(N)=O)[C@@H](C)O)C(C)C)NC(=O)[C@H](Cc2c[nH]cn2)NC(=O)[C@@H]2CCCN2C(=O)[C@H](Cc2ccc(O)cc2)NC1=O` [Peptide P12-3A] (H-QSLPWCYPHCVT-NH2; disulfide 6-10 (inferred)), the Ki is, setting by setting: (deliberately cyclized, highly pure cosmetic-grade P12-3A, n=6, read-out: Ki against insulin degradation) 2.5 ± 0.31 µM; (substrate recombinant human insulin, Ki converted from IC50 with the Cheng-Prusoff equation, read-out: Ki Insulin) 4.1 ± 0.3 µM.
